Source: patent publication US8946124B2, “Substituted 3-(biphenyl-3-yl)-8,8-difluoro-4-hydroxy-1-azaspiro[4.5]dec-3-en-2-ones for therapy and halogen-substituted spirocyclic ketoenols” (Bayer Intellectual Property GmbH, priority 2011, dated 2015)

Legend:
[1] = Octanol/water distribution coefficient (log P/D), isocratic HPLC method; assay type: physicochemical; conditions: pH 7.4; mean (range, n); read-out: logP/D pH 7.4
From the text: The distribution coefficient octanol/water P or D is a key parameter for estimating membrane penetration and permeability. It is defined as the ratio of the equilibrium concentrations of a substance in the two-phase system octanol/water.
[formula] P=partition D=distribution c(octanol)=concentration of the substance in the octanol phase c(water)=concentration of the substance in the aqueous phase
It is usually stated in form of the decadic logarithm (log P or log D).
log P describes the distribution behavior of a substance exclusively present in its neutral form. logD describes the distribution behavior of a substance at a certain pH; depending on the ionisation constant pKa of the substance, some of the substance may be present in ionic form, and some in neutral form.
The log P/D of the active compounds was determined using an isocratic HPLC method (HPLC=high performance liquid chromatography) (literature: OECD Guideline for Testing of Chemicals No. 117). The method is based on the correlation of the HPLC retention time of the test substance to that of reference substances with known distribution coefficients.
The test substance was employed as a 10 mM solution in DMSO (DMSO=dimethyl sulfoxide). 10 μl of this solution were made up to 100 μl with a methanol/water mixture in a ratio of 7+3.
The nine reference substances were dissolved individually in methanol. 100 μl each of the stock solutions were added to an HPLC vial and mixed with 300 μl of water.
A formamide solution was used to determine the hold-up time. To this end, 7 mg of formamide were dissolved in 10 ml of methanol. 100 μl of this stock solution were mixed with 500 μl of methanol and 200 μl of water.
All solutions were chromatographed using a flow rate of 1.00 ml/min.
Injection Protocol: formamide, references, test substance 1, test substance 2, . . . , formamide, references.
Evaluation of the retention times was carried out in a diode array detector (DAD) at 200-400 nm. Via the molecular mass, the identity of the test substance was checked using the downstream mass spectrometer.
The HPLC run was evaluated using the Waters software Masslynx 4.1.
The log P/D values were calculated using the software “POW Determination” (proprietary development).

Spodoptera frugiperda = Spodoptera frugiperda test (SPODFR spray treatment); assay type: in vivo; conditions: 500 g/ha, after 7 days
From the text: (§1) Solvents: 78.0 parts by weight of acetone

human plasma protein = assay: Plasma protein binding by equilibrium dialysis; assay type: in vitro ADME
Experimental: (§2) The binding of test substances to plasma proteins is determined by equilibrium dialysis by means of the Ht-dialysis apparatus (96-well) made of Teflon and a semipermeable membrane (regenerated cellulose, MWCO 12-14K). This separates 150 μl each of a plasma side and a buffer side (50 mM phosphate buffer). The test substance is added in 2 concentrations (usually 3 and 0.3 μM) to the plasma side and binds to plasma proteins. The unbound fraction of the test substance passes through the membrane and is distributed on either side until equilibrium is established (after approx. 6-8 h at 37° C.). The substance concentration on the buffer side and the plasma side is determined by LC-MS analysis. For this, both sides are brought by dilution with buffer or plasma to the same matrix (10% plasma) and then precipitated with methanol. The free (unbound) fraction (fu) is calculated from the quotient of the buffer and plasma concentration. Stability tests and recovery tests are run concurrently as controls. In addition, the substance in buffer is dialysed against buffer, to check the nonspecific binding to apparatus and membrane and establishment of equilibrium. Because during incubation the osmotic pressure of the plasma proteins leads to dilution of the plasma (volume shift), this possible error is determined by weighing blank plasma samples and is included in the calculation of fu. Establishment of equilibrium and plasma stability should have a value not lower than 80% and the recovery should be at least 30%. A free fraction of <1% is regarded as high, between 1 and 10% as moderate and >10% as low plasma protein binding.

mouse plasma protein = assay: Plasma protein binding by equilibrium dialysis; assay type: in vitro ADME
Experimental: as §2

Tetranychus urticae = assay: Tetranychus test, OP-resistant (TETRUR spray treatment); assay type: in vivo; conditions: after 6 days
Experimental: as §1
After 6 days, the effect in % is determined.
Tetranychus Test, OP-Resistant (TETRUR Spray Treatment)

Phaedon cochleariae = assay: Phaedon test (PHAECO spray treatment); conditions: 500 g/ha, after 7 days
Myzus persicae = assay: Myzus test (MYZUPE spray treatment); assay type: in vivo; conditions: 500 g/ha, after 6 days
human ACC1 = assay type: biochemical; conditions: pairwise, same substance dilution series
Meloidogyne incognita = Meloidogyne incognita test (MELGIN); assay type: in vivo; conditions: 20 ppm, after 14 days
Experimental: Solvent: 125 parts by weight of acetone
Containers are filled with sand, solution of active compound, Meloidogyne incognita egg/larvae suspension and lettuce seeds. The lettuce seeds germinate and the plants develop. On the roots, galls are formed. After 14 days, the nematicidal effect in % is determined by the formation of galls. 100% means that no galls have been found; 0% means that the number of galls on the treated plants corresponds to the untreated control.

Boophilus microplus = Boophilus microplus test (BOOPMI injection); assay type: in vivo; conditions: 20 μg/animal, after 7 days
Experimental: (§3) Solvent: dimethyl sulfoxide
To prepare an appropriate active compound formulation, 10 mg of active compound are mixed with 0.5 ml of solvent and the concentrate is diluted with solvent to the desired concentration. The solution of active compound is injected into the abdomen (Boophilus microplus), and the animals are transferred into dishes and kept in a climatized room. The activity is assessed by […] of fertile eggs.
100% means that none of the ticks has laid any fertile eggs.

Lucilia cuprina = Lucilia cuprina test (LUCICU); assay type: in vivo; conditions: 100 ppm, after 2 days
Experimental: as §3
To prepare an appropriate active compound formulation, 10 mg of active compound are mixed with 0.5 ml of dimethyl sulfoxide and the concentrate is diluted with water to the desired concentration. Vessels containing horse meat treated with the active compound preparation of the desired concentration are populated with about 20 Lucilia cuprina larvae.
After 2 days, the kill in % is determined.

plasma proteins of rat = assay: Plasma protein binding by equilibrium dialysis; assay type: in vitro ADME
Experimental: as §2

| SMILES | chromatographic logD [1] | effect in % (caterpillars killed) (Spodoptera frugiperda) [%] | effect in % (spider mites killed) (Tetranychus urticae; 100 g/ha) [%] | effect in % (beetle larvae killed) (Phaedon cochleariae) [%] | effect in % (aphids killed) (Myzus persicae) [%] | further results |
| --- | --- | --- | --- | --- | --- | --- |
| Cc1ccc(-c2ccc(Cl)cc2)cc1C1=C(O)C2(CCC(F)(F)CC2)NC1=O [Example 1-2, 3-(4′-Chloro-4-methylbiphenyl-3-yl)-8,8-difluoro-4-hydroxy-1-azaspiro[4.5]dec-3-en-2-one] | 1.73 | 100 | 100 | 100 | 100 | fu [%] (human) (human plasma protein): 0.42%; fu [%] (mouse) (mouse plasma protein): 3.49% |
| O=C1NC2(CCC(F)(F)CC2)C(O)=C1c1cc(-c2ccc(Cl)cc2)ccc1Cl [Example 1-4, 3-(4,4′-Dichlorobiphenyl-3-yl)-8,8-difluoro-4-hydroxy-1-azaspiro[4.5]dec-3-en-2-one] | – | – | – | – | – | Ratio of IC50s ACC2/ACC1 (respective measurement) (human ACC1): 34.0 |
| Cc1ccc(-c2ccc(Cl)cc2)c(C)c1C1=C(O)C2(CCC(F)(F)CC2)NC1=O [Example 1-5, 3-(4′-Chloro-2,4-dimethylbiphenyl-3-yl)-8,8-difluoro-4-hydroxy-1-azaspiro[4.5]dec-3-en-2-one] | – | – | 90 | – | 100 | nematicidal effect in % (formation of galls) (Meloidogyne incognita): 100% |
| Cc1ccc(-c2ccc(F)cc2)c(C)c1C1=C(O)C2(CCC(F)(F)CC2)NC1=O [Example I-1-a-2] | – | 100 | – | 100 | 100 | nematicidal effect in % (formation of galls) (Meloidogyne incognita): 100%; effect in % (fertile eggs) (Boophilus microplus): 80%; kill in % (Lucilia cuprina): 100%; effect in % (spider mites killed) (Tetranychus urticae; 500 g/ha): 100% |
| Cc1cc(Br)cc(C)c1C1=C(O)C2(CCC(F)(F)CC2)NC1=O [Example I-1-a-5] | – | – | 100 | 100 | 100 | – |
| Cc1cc(Cl)cc(C)c1C1=C(O)C2(CCC(F)(F)CC2)NC1=O [Example I-1-a-7] | – | – | 100 | 100 | 100 | – |
| CCc1cc(C)cc(C)c1C1=C(O)C2(CCC(F)(F)CC2)NC1=O [Example I-1-a-11] | – | – | 100 | – | – | – |
| Cc1ccc(-c2ccc(F)cc2)c(C)c1C1=C(O)C2(CC=C(F)CC2)NC1=O (centres unmarked) [Example I-1-a-12] | – | 100 | – | 100 | 100 | effect in % (spider mites killed) (Tetranychus urticae; 500 g/ha): 100% |
| Cc1cc(Cl)cc(C)c1C1=C(O)C2(CC=C(F)CC2)NC1=O (centres unmarked) [Example I-1-a-13] | – | – | 90 | 100 | 100 | – |
| Cc1ccc(-c2ccc(F)cc2)c(C)c1C1=C(O)C2(CCC(F)(F)CC2)OC1=O [Example I-2-a-2] | – | 100 | – | 100 | 100 | effect in % (spider mites killed) (Tetranychus urticae; 500 g/ha): 100% |
| Cc1ccc(-c2ccc(Cl)cc2)cc1C1=C(O)C2(CCC(F)(F)CC2)OC1=O [Example I-2-a-3] | – | 100 | – | 100 | 90 | – |
| Cc1cc(C)c(C2=C(O)C3(CCC(F)(F)CC3)OC2=O)c(C)c1 [Example I-2-a-4] | – | – | – | 100 | 100 | – |
| Cc1ccc(-c2ccc(Cl)c(F)c2)cc1C1=C(O)[C@]2(CC[C@H](C(F)(F)F)CC2)NC1=O [V.1-a, (5s,8s)-3-(4′-Chloro-3′-fluoro-4-methylbiphenyl-3-yl)-4-hydroxy-8-(trifluoromethyl)-1-azaspiro[4.5]dec-3-en-2-one] | 2.55 | – | – | – | – | Ratio of IC50s ACC2/ACC1 (respective measurement) (human ACC1): 8.6 |
| Cc1ccc(-c2ccc(Cl)c(F)c2)cc1C1=C(O)C2(CCCCC2)NC1=O [V.1-b, 3-(4′-Chloro-3′-fluoro-4-methylbiphenyl-3-yl)-4-hydroxy-1-azaspiro[4.5]dec-3-en-2-one] | 2.8 | – | – | – | – | – |
| Cc1ccc(-c2ccc(Cl)cc2)cc1C1=C(O)[C@]2(CC[C@H](C(F)(F)F)CC2)NC1=O [V.2-a, (5s,8s)-3-(4′-Chloro-4-methylbiphenyl-3-yl)-4-hydroxy-8-(trifluoromethyl)-1-azaspiro[4.5]dec-3-en-2-one] | 2.23 | – | – | – | – | Ratio of IC50s ACC2/ACC1 (respective measurement) (human ACC1): 8.4 |
| Cc1ccc(-c2ccc(Cl)cc2)cc1C1=C(O)C2(CCCCC2)NC1=O [V.2-b, 3-(4′-Chloro-4-methylbiphenyl-3-yl)-4-hydroxy-1-azaspiro[4.5]dec-3-en-2-one, reference compound] | 2.77 | – | – | – | – | fu [%] (rat) (plasma proteins of rat): 0.71%; fu [%] (human) (human plasma protein): 0.36%; fu [%] (mouse) (mouse plasma protein): 2.81% |
